We go through three compounds from PMC11379888 (Nature Communications, 2024).

≈ marks a conversion by molar mass, not a printed value. Where two headings read alike, the source gives them in different places.

In one test the target is Cdr1 fused with EGFP (Candida albicans, UniProt Q5ANA3). As to the kind of experiment: Microscale thermophoresis. The class given is binding, C. albicans. On the technique in general: MST reads how a fluorescent partner responds to local heating, with and without ligand.
In test [1] the test system is Pdr5-deficient S. cerevisiae (empty vector). As to the kind of experiment: microbe, parasite or virus in culture. The format is cell-based. To be noted: Saccharomyces cerevisiae, 48 h, read-out: IC50 (fluconazole-sensitivity, OD600nm).
The target of another test is purified Cdr1 (Candida albicans, UniProt Q5ANA3). As to the kind of experiment: ATPase activity assay. Particulars: drug ten times Cdr1 concentration (4 μM vs 0.4 μM), GDN, relative to DMSO. The class given is biochemical, C. albicans.
For test [2], the system named is C. albicans Cdr1 overexpressed in Pdr5-deficient S. cerevisiae. Kind of test: organism not typed. The format is cell-based. Particulars: 48 h, read-out: IC50 (fluconazole-sensitivity, OD600nm).
For test [3], the system named is azole-resistant clinical C. albicans isolates. Particulars: cited from earlier work.
In test [4] the test system is Cdr1 overexpressed in Pdr5-knocked-out S. cerevisiae. The format is cell-based.
Another test deals with C. albicans Cdr1. Particulars: cited from earlier work.
Another test concerns C. albicans Cdr2. To be noted: cited from earlier work.

Chain of Cdr1 fused with EGFP (Q5ANA3 whole entry, the tested form may be a part): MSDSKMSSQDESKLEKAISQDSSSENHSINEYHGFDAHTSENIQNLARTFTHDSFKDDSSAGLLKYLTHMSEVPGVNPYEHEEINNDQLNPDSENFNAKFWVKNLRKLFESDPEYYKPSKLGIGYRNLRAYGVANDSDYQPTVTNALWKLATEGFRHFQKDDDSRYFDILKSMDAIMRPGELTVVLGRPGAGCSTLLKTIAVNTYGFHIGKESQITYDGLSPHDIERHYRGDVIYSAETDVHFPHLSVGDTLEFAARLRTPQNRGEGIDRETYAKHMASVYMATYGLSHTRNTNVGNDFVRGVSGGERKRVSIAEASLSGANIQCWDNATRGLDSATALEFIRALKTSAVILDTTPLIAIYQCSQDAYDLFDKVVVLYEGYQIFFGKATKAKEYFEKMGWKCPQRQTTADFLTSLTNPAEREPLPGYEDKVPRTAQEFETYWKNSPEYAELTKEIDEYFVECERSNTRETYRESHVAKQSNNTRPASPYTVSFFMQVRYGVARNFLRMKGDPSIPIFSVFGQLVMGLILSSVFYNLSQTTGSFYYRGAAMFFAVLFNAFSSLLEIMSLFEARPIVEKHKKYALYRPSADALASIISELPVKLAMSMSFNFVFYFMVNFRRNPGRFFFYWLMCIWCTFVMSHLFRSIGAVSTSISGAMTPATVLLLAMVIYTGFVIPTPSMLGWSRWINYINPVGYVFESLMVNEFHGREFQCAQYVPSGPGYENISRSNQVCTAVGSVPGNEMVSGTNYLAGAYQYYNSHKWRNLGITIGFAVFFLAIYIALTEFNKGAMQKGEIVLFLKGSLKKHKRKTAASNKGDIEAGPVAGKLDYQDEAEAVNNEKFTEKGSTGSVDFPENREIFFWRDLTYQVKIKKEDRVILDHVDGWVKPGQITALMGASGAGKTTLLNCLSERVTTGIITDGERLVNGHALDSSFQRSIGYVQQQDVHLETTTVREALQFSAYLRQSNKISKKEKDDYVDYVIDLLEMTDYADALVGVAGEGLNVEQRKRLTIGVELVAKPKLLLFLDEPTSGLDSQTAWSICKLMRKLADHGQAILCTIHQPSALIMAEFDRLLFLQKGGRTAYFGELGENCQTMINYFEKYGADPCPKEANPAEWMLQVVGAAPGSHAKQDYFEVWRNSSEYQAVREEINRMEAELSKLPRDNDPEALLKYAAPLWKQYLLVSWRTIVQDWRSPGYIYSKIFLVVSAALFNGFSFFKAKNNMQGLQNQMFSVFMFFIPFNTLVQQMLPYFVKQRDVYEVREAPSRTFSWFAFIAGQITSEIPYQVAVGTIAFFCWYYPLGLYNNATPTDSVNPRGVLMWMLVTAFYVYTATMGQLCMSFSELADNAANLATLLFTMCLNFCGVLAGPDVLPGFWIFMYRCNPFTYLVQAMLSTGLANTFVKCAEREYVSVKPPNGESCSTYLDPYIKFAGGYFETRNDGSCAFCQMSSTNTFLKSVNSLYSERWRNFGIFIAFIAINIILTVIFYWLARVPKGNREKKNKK
Chain of purified Cdr1 (Q5ANA3 whole entry): as the sequence (Q5ANA3 whole entry, the tested form may be a part) above

A word on the Kd: it is the concentration at which binding is half-saturated. Usually IC50 stands for the point on the concentration scale where inhibition reaches its midpoint. In the case of `OC(Cn1cncn1)(Cn1cncn1)c1ccc(F)cc1F` [fluconazole], the Kd at Cdr1 fused with EGFP stood at 61.4 µM. In addition, the IC50 came out at 0.31 µg/mL (≈ 1.01 µM) in test [1] and 56.6 µg/mL (≈ 185 µM) in test [2]. Further, the “ATP hydrolysis (relative ATPase activity, mean)” value on purified Cdr1 is “decreases slightly”.
Turning to milbemycin oxime, on Cdr1 fused with EGFP (read-out: dissociation constant (Kd), 100 nM Cdr1, PBS 0.02% DDM, 25 °C), the Kd was found to be 0.147 µM. Also, the “ATP hydrolysis (relative ATPase activity, mean)” value at purified Cdr1 was found to be 25.7%. Moreover, in test [3], the synergy with fluconazole result was “strong synergistic effects with fluconazole”. Also, the “selectivity of inhibition Cdr1 vs Pdr5” value in test [4] ([…], 1 μg/mL fluconazole, 0.1 μg/mL milbemycin oxime) was “selectively inhibits Cdr1 rather than Pdr5”. Besides, the “IC50 (milbemycin oxime-sensitivity, OD600nM)” value in test [4] (with 1 µg/mL fluconazole) amounted to 0.034 µg/mL; in test [4] (with 10 µg/mL fluconazole), 0.009 µg/mL.
In the case of milbemycin α25, the “inhibition of Cdr1” value with C. albicans Cdr1 was “potent inhibition”. In the test with C. albicans Cdr2, the “inhibition of Cdr2” value is given as “potent inhibition”.
